Results on three molecules are retold here after US5616593A, “Compositions containing piperine” (priority 1993, dated 1997).

Data set [1] is described as follows: Absorption of certain drugs through gastro-intestinal membranes. On the set-up: species or system human. To be noted: through membranes of gastro-intestinal tract.
The nature of data set [2]: Retention of certain drugs in the body. On the set-up: species or system human. To be noted: combined with piperine.
Another data set deals with serum proteins. Nature of the data set: Binding of the serum proteins. On the set-up: species or system human. To be noted: combined with drug.
Data set [3] concerns natural immune mechanism of the body. Kind of data set: Stimulation of natural immune mechanism / antibody production. Set-up: species or system human.
Data set [4] in a line: Intrinsic pharmaceutical or medicinal properties of piperine. To be noted: piperine alone.
The conditions of data set [5]: cited from earlier work.
The conditions of data set [6]: combined with known anti-tuberculosis and/or anti-leprosy drugs; cited from earlier work.
The nature of data set [7]: Clinical trial comparing bio-availability of two pentazocine formulations (with and without piperine). It is filed as in vivo, human (healthy volunteers). To be noted: with vs without piperine; pentazocine 25 mg, piperine 5 mg, hard gelatin capsules; 12 healthy volunteers. The procedure:
Pentazocine -- -- 25 mg.
Dosage Form: Hard gelatin capsules.
Both pentazocine and piperine were milled and were then blended together. With repeated sieving, both the components were mixed to a homogenous mixture. Five samples of mixtures were randomly selected and their homogenecity was confirmed by reproducible analysis. With the help of hand-operated capsule filling machine, the formulation was encapsulated in hard gelatin capsule.
A clinical trial was conducted in 12 healthy volunteers in order to compare the bio-availability of two formulations containing pentazocine (with and without piperine).

Data set [8] can be described thus: Clinical study comparing bio-availability of two amlodipine formulations (with and without piperine). It is filed as in vivo, human (healthy volunteers). To be noted: with vs without piperine; amlodipine 10 mg, piperine 5 mg, hard gelatin capsules; 12 healthy volunteers. As for the experimental part:
Dosage Form: Hard gelatin capsules
Amlodipine and piperine were milled. The two components were blended together.
The homogenecity of five random samples of the mixture was confirmed from reproducible analysis. The formulation was then encapsulated in hard gelatin capsule in hand-operated capsule filling machine.
To compare the bio-availability of two formulations containing amlodipine (with and without piperine) a clinical study was conducted in 12 healthy volunteers.

As for `O=C(/C=C/C=C/c1ccc2c(c1)OCO2)N1CCCCC1` [Piperine], the “absorption of certain drugs” value in [1] is recorded as “increase the absorption of certain drugs”. In [2], the “retention of certain drugs in the human body” value is “retain certain drugs when combined with it in the human body for a longer period of time”. In the data set on serum proteins, the “binding of the serum proteins” value is recorded as “increase the binding of the serum proteins”. Also, the “stimulation of natural immune mechanism, production of antibodies against microbial infections” value in data set [3] was “stimulate the natural immune mechanism of the body so as to enhance the production of antibodies against microbial infections”. In data set [4], the “pharmaceutical or medicinal properties of piperine as such” value was “does not have any pharmaceutical or medicinal properties”. In data set [5] (benzene, chloroform, ether, ethyl acetate, dichloromethane, alcohol, acetic acid), the “solubility in organic solvents” value is given as “soluble in benzene, chloroform, ether, ethyl acetate, dichloromethane, alcohol, acetic acid”. Besides, the “solubility in water and petroleum ether” value in data set [5] (water, petroleum ether) is “insoluble in water, and petroleum ether”. The “therapeutic efficacy of anti-tuberculosis and/or anti-leprosy drugs” value in data set [6] was “increased therapeutic efficacy”.

Take `CC(C)=CCN1CCC2(C)c3cc(O)ccc3CC1C2C` (stereo not shown) [pentazocine]: the “blood levels of the active ingredient pentazocine” value in data set [7] is “increased blood levels”.

As for `CCOC(=O)C1=C(COCCN)NC(C)=C(C(=O)OC)C1c1ccccc1Cl` (stereo not shown) [Amlodipine], the “blood levels of the active ingredient amlodipine” value in data set [8] is reported as “increased blood levels”.
